“Also recorded” adds a separate entry of the source.
System: RBPMS2 transcript level in GIST882 cells
Experiment: RBPMS2 transcript level by quantitative RT-PCR in GIST882 cells after inhibitor treatment
Assay type: cell-based, human
Protocol: For quantitative RT-PCR analysis, gene expression levels were measured using the LightCycler technology (Roche Diagnostics). […] Each sample was assayed in three independent experiments in triplicate. Expression levels were determined with the LightCycler analysis software (version 3.5) relative to standard curves. Data were represented as the mean level of gene expression relative to the expression of the reference gene HPRT (Roche Diagnostic). For cell culture experiments, RNA isolation was done with the RNeasy Mini kit (Qiagen) and quantitative RT-PCR was performed using Power Sybergreen (Applied biosystems). Data were represented as the mean level of gene expression relative to the expression of the reference genes ABL, TTC1 and UBC for the comparison of RBPMS2 expression between different cell lines and GAPDH and ACTIN for GIST882 cells, which were treated with either Imatinib or U0126.
The human GIST cell line GIST882 was maintained in DMEM (GIBCO) supplemented with 10% Fetal Bovine Serum (FBS), 2% Penicilline-Streptomycin (Lonza) and incubated with 1 μM of Imatinib (inhibitor of KIT activity) (LC Laboratory) or 5 μM of U0126 (MEK inhibitor) (Sigma-Aldrich), as previously described (Gromova et al., 2011).

| Structure (SMILES) | RBPMS2 transcript (mRNA) level (1 μM Imatinib vs DMSO control, 6, 24 and 48 h) | RBPMS2 transcript (mRNA) level (5 μM U0126 vs DMSO control, 6, 24 and 48 h) |
| --- | --- | --- |
| Cc1ccc(NC(=O)c2ccc(CN3CCN(C)CC3)cc2)cc1Nc1nccc(-c2cccnc2)n1 [Imatinib] | No significant changes; also recorded: not influenced |  |
| N#CC(=C(/N)Sc1ccccc1N)/C(C#N)=C(\N)Sc1ccccc1N [U0126] |  | No significant changes; also recorded: not influenced |

Source: patent US20150259403A1, “Methods and Pharmaceutical Compositions for Treatment of Gastrointestinal Stromal Tumors” (INSERM (INSTITUT NATIONAL DE LA SANTÉ ET DE LA RECHERCHE …, priority 2012, published 2015)
